Measurements published in patent US9249129B2, “Morpholino substituted urea derivatives as mTOR inhibitors” (CELLZOME LIMITED, priority 2010, dated 2016).
pIC50: −log10 of the molar value.

System: S6RP serine-240/244 phosphorylation in HEK293T/17 cells
Experiment: In vitro phospho-S6 cellular assay (pS6RP S240/244)
Format: cell-based
Conditions: Homo sapiens, Table 6, 2 hours, S6RP Ser240/244, read-out: pS6 (phospho-S6 cell assay data, activity level)
Outline: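 HEK293T/17 cells in DMEM with 2% FCS treated with 8 compound concentrations (0.1% DMSO) for 2 h at 37 °C, then lysed. Phospho-S6RP Ser240/244 or phospho-Akt Ser473 quantified by MesoScale sandwich immunoassay with Sulfo-Tag detection; IC50 from variable-slope sigmoidal fit.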

SMILES: C[C@H]1COCCN1c1nc(-c2ccc(NC(=O)NCCO)cc2)cc(-c2cc(F)ccc2S(C)(=O)=O)n1 [Example 41, (S)-1-(4-(6-(5-fluoro-2-(methylsulfonyl)phenyl)-2-(3-methylmorpholino)pyrimidin-4-yl)phenyl)-3-(2-hydroxyethyl)urea]
- pIC50: > 7.00

SMILES: C[C@H]1COCCN1c1ccnc(-c2ccc(NC(=O)Nc3ccncc3)cc2)n1 [Example 60, (S)-1-(4-(4-(3-methylmorpholino)pyrimidin-2-yl)phenyl)-3-(pyridin-4-yl)urea]
- pIC50: > 7.00

SMILES: C[C@H]1COCCN1c1cc(-c2ccccc2S(C)(=O)=O)nc(-c2ccc(NC(=O)NC3CC3)cc2)n1 [Example 6, (S)-1-cyclopropyl-3-(4-(4-(3-methylmorpholino)-6-(2-(methylsulfonyl)phenyl)pyrimidin-2-yl)phenyl)urea]
- pIC50: > 7.00

SMILES: CCNC(=O)Nc1ccc(-c2cc(-c3cc(F)ccc3S(C)(=O)=O)nc(N3CCOC[C@@H]3C)n2)cc1 [Example 2, (S)-1-ethyl-3-(4-(6-(5-fluoro-2-(methylsulfonyl)phenyl)-2-(3-methylmorpholino)pyrimidin-4-yl)phenyl)urea]
- pIC50: > 7.00

SMILES: C[C@H]1COCCN1c1cc(-c2ccc(F)nc2)nc(-c2ccc(NC(=O)NC3CC3)cc2)n1 [Example 21, (S)-1-cyclopropyl-3-(4-(4-(6-fluoropyridin-3-yl)-6-(3-methylmorpholino)pyrimidin-2-yl)phenyl)urea]
- pIC50: > 7.00

SMILES: C[C@H]1COCCN1c1cc(-c2cncc(F)c2)nc(-c2ccc(NC(=O)NC3CC3)cc2)n1 [Example 23, (S)-1-cyclopropyl-3-(4-(4-(5-fluoropyridin-3-yl)-6-(3-methylmorpholino)pyrimidin-2-yl)phenyl)urea]
- pIC50: 6.00 to 7.00

SMILES: C[C@H]1COCCN1c1nc(-c2ccc(NC(=O)NCCF)cc2)cc(-c2cc(F)ccc2S(C)(=O)=O)n1 [Example 44, (S)-1-(4-(6-(5-fluoro-2-(methylsulfonyl)phenyl)-2-(3-methylmorpholino)pyrimidin-4-yl)phenyl)-3-(2-fluoroethyl)urea]
- pIC50: > 7.00

SMILES: C[C@H]1COCCN1c1nc(-c2ccc(NC(=O)NCC(F)F)cc2)cc(-c2cc(F)ccc2S(C)(=O)=O)n1 [Example 47, (S)-1-(2,2-difluoroethyl)-3-(4-(6-(5-fluoro-2-(methylsulfonyl)phenyl)-2-(3-methylmorpholino)pyrimidin-4-yl)phenyl)urea]
- pIC50: > 7.00

SMILES: C[C@H]1COCCN1c1nc(-c2ccc(NC(=O)NCCCO)cc2)cc(-c2cc(F)ccc2S(C)(=O)=O)n1 [Example 64, (S)-1-(4-(6-(5-fluoro-2-(methylsulfonyl)phenyl)-2-(3-methylmorpholino)pyrimidin-4-yl)phenyl)-3-(3-hydroxypropyl)urea]
- pIC50: > 7.00

SMILES: C[C@H]1COCCN1c1nc(-c2ccc(NC(=O)NC3CC3)cc2)cc(-c2ccccc2S(C)(=O)=O)n1 [Example 4, (S)-1-cyclopropyl-3-(4-(2-(3-methylmorpholino)-6-(2-(methylsulfonyl)phenyl)pyrimidin-4-yl)phenyl)urea]
- pIC50: > 7.00

SMILES: CS(=O)(=O)c1ccc(F)cc1-c1cc(-c2ccc(NC(=O)NCCO)cc2)nc(N2CCOCC2)n1 [Example 62, 1-(4-(6-(5-fluoro-2-(methylsulfonyl)phenyl)-2-morpholinopyrimidin-4-yl)phenyl)-3-(2-hydroxyethyl)urea]
- pIC50: 6.00 to 7.00

SMILES: O=C(Nc1ccncc1)Nc1ccc(-c2nccc(N3CC4CCC(C3)O4)n2)cc1 [Example 61, 1-(4-(4-(8-oxa-3-azabicyclo[3.2.1]octan-3-yl)pyrimidin-2-yl)phenyl)-3-(pyridin-4-yl)urea]
- pIC50: > 7.00

SMILES: C[C@H]1COCCN1c1cc(-c2ccccn2)nc(-c2ccc(NC(=O)NC3CC3)cc2)n1 [Example 42, (S)-1-cyclopropyl-3-(4-(4-(3-methylmorpholino)-6-(pyridin-2-yl)pyrimidin-2-yl)phenyl)urea]
- pIC50: 6.00 to 7.00

SMILES: C[C@H]1COCCN1c1nc(-c2ccc(NC(=O)NC3CC3)cc2)cc(-c2cccnc2S(C)(=O)=O)n1 [Example 46, (S)-1-cyclopropyl-3-(4-(2-(3-methylmorpholino)-6-(2-(methylsulfonyl)pyridin-3-yl)pyrimidin-4-yl)phenyl)urea]
- pIC50: > 7.00

SMILES: C[C@H]1COCCN1c1nc(-c2ccc(NC(=O)N[C@H]3CCC[C@@H]3O)cc2)cc(-c2cc(F)ccc2S(C)(=O)=O)n1 [Example 76, 1-(4-(6-(5-fluoro-2-(methylsulfonyl)phenyl)-2-((S)-3-methylmorpholino)pyrimidin-4-yl)phenyl)-3-((1S,2S)-2-hydroxycyclopentyl)urea]
- pIC50: > 7.00

SMILES: C[C@H]1COCCN1c1cc(-c2ccccn2)nc(-c2ccc(NC(=O)NCCO)cc2)n1 [Example 43, (S)-1-(2-hydroxyethyl)-3-(4-(4-(3-methylmorpholino)-6-(pyridin-2-yl)pyrimidin-2-yl)phenyl)urea]
- pIC50: > 7.00

SMILES: C[C@H]1COCCN1c1nc(-c2ccc(NC(=O)NC3CC3)cc2)cc(-c2cc(F)ccc2S(C)(=O)=O)n1 [Example 40, (S)-1-cyclopropyl-3-(4-(6-(5-fluoro-2-(methylsulfonyl)phenyl)-2-(3-methylmorpholino)pyrimidin-4-yl)phenyl)urea]
- pIC50: > 7.00
